Measurements: article PMC5666006, “Combating virulence of Gram-negative bacilli by OmpA inhibition” (Scientific Reports, 2017)
Where a SMILES comes first, the peptide text is derived from it. [ ]: non-standard residue; d: D form.

Assays:
E. coli ATCC 25922 = type: cell-based
Procedure: (§1) In the initial screening, the bactericidal activity of the synthetic peptides and their toxicity on human lung epithelial cells (A549) were evaluated.
(§2) Table S1. MICs of the six hexapeptides for A. baumannii and E. coli.
(§3) Peptides P. aeruginosa PaO1
(§4) MIC: minimal inhibitory concentration

A. baumannii ATCC 17978 = type: cell-based
Procedure: as §1, §2, §3, §4

P. aeruginosa PaO1 = type: cell-based
Procedure: as §1, §2, §3, §4

[1] = Peptide toxicity, MTT assay; type: cell-based, human; details: human, A549 cells
Procedure: (§5) Human type II pneumocyte cell line A549 derived from a human lung carcinoma were obtained from American Type Culture Collection (LGC, UK) and were grown in DMEM medium (Invitrogen, Spain) supplemented with 10% heat-inactivated fetal bovine serum, vancomycin (50 μg/mL), gentamicin (20 μg/mL), amphotericin B (0.25 μg/mL) (Invitrogen, Spain) and 1% HEPES (Invitrogen, Spain) in a humidified incubator, 5% CO2 at 37 °C. A549 cells were routinely passaged every 3–4 days. The cells were seeded 24 h in 96-well plates for cellular viability assay, and in 24 well plates for adhesion and immnunofluorescence assays.
(§6) Peptide toxicity. […] Prior the evaluation of the peptides cytotoxicity, A549 cells were washed three times with prewarmed PBS. Then, peptides cytotoxicity was initially assessed quantitatively by monitoring the mitochondrial reduction activity using the MTT assay as described previously. The percentage of […] was calculated from the optical density (OD) as follow: [(OD of treated cells / mean OD of non-treated cell) × 100].
(§7) Table S2. Percentages of A549 cellular viability assessed through mitochondrial reduction
(§8) activity (MTT assay) in presence of anti-OmpA hexapeptides and control peptides (SXV4 and
(§9) COL). COL: colistin. ND: not determined.
(§10) Peptides 0.25 mg/mL 0.5 mg/mL 1 mg/mL 5 mg/mL

A549 cells = experiment: Peptide toxicity, MTT assay; type: cell-based, human; details: 48 h, MTT, mean ± SEM
Procedure: as §5, §6, §7, §8, §9, §10

Compound | MIC (E. coli ATCC 25922) [µg/mL] | MIC (A. baumannii ATCC 17978) [µg/mL] | MIC (P. aeruginosa PaO1) [µg/mL] | viability at 48 h, 250 µg/mL [1] [%] | viability at 48 h, 500 µg/mL [1] [%] | viability at 48 h, 1000 µg/mL [1] [%] | Cellular viability (%) (A549 cells; A549, 0.5 mg/mL) | Cellular viability (%) (A549 cells; A549, 1 mg/mL) | Cellular viability (%) (A549 cells; A549, 5 mg/mL)
N=C(N)NCCC[C@H]1NC(=O)[C@H](Cc2c[nH]c3ccccc23)NC(=O)[C@@H]2CCCN2C(=O)[C@@H](CCCNC(=N)N)NC(=O)[C@H](Cc2c[nH]c3ccccc23)NC(=O)[C@@H]2CCCN2C1=O [AOA-4] (cyclo(PW[dR]PW[dR])) | > 500 | > 500 | > 500 | 99.47 ± 0.39 | 99.77 ± 0.17 | 100.1 ± 0.18 | – | – | –
N=C(N)NCCC[C@@H]1NC(=O)[C@@H](Cc2c[nH]c3ccccc23)NC(=O)[C@@H]2CCCN2C(=O)[C@H](CCCNC(=N)N)NC(=O)[C@@H](Cc2c[nH]c3ccccc23)NC(=O)[C@@H]2CCCN2C1=O [AOA-3] (cyclo(P[dW]RP[dW]R)) | > 500 | > 500 | > 500 | 99.27 ± 0.21 | 99.7 ± 0.14 | 99.36 ± 0.3 | – | – | –
colistin [reference compound] | – | – | – | – | – | – | 91.85 ± 2.67 | 68.39 ± 2.93 | 9.88 ± 0.42
N=C(N)NCCC[C@@H]1NC(=O)[C@H](Cc2c[nH]c3ccccc23)NC(=O)[C@H]2CCCN2C(=O)[C@H](CCCNC(=N)N)NC(=O)[C@H](Cc2c[nH]c3ccccc23)NC(=O)[C@H]2CCCN2C1=O [AOA-1] (cyclo(R[dP]WR[dP]W)) | > 500 | > 500 | > 500 | 98.89 ± 0.41 | 99.69 ± 0.26 | 99.7 ± 0.38 | – | – | –

Further lines, with some results ahead:

MIC (E. coli ATCC 25922) [µg/mL] | MIC (A. baumannii ATCC 17978) [µg/mL] | MIC (P. aeruginosa PaO1) [µg/mL] | Compound | viability at 48 h, 250 µg/mL [1] [%] | viability at 48 h, 500 µg/mL [1] [%] | viability at 48 h, 1000 µg/mL [1] [%] | Cellular viability (%) (A549 cells; A549, 0.5 mg/mL) | Cellular viability (%) (A549 cells; A549, 1 mg/mL) | Cellular viability (%) (A549 cells; A549, 5 mg/mL)
> 500 | > 500 | > 500 | O=C(O)CC[C@@H]1NC(=O)[C@H](Cc2c[nH]c3ccccc23)NC(=O)[C@H]2CCCN2C(=O)[C@H](CCC(=O)O)NC(=O)[C@H](Cc2c[nH]c3ccccc23)NC(=O)[C@H]2CCCN2C1=O [AOA-6] (cyclo(E[dP]WE[dP]W)) | 98.31 ± 0.35 | 99.14 ± 0.44 | 99.38 ± 0.34 | – | – | –
> 500 | > 500 | > 500 | O=C1N[C@@H](CO)C(=O)N2CCC[C@@H]2C(=O)N[C@@H](Cc2c[nH]c3ccccc23)C(=O)N[C@@H](CO)C(=O)N2CCC[C@@H]2C(=O)N[C@H]1Cc1c[nH]c2ccccc12 [AOA-5] (cyclo(S[dP]WS[dP]W)) | 98.86 ± 0.08 | 100 ± 0.39 | 100.1 ± 0.46 | – | – | –
> 500 | > 500 | > 500 | CC(=O)N[C@@H](Cc1c[nH]c2ccccc12)C(=O)N1CCC[C@@H]1C(=O)N[C@@H](CCCNC(=N)N)C(=O)N[C@@H](Cc1c[nH]c2ccccc12)C(=O)N1CCC[C@@H]1C(=O)N[C@@H](CCCNC(=N)N)C(=O)O [SXV4] (Ac-W[dP]RW[dP]R-OH) | 98.17 ± 0.6 | 98.79 ± 0.28 | 98.55 ± 0.21 | – | – | –
